Results published in patent publication US8980951B2, “Sesquiterpenes for antifungal applications” (Kansas State University Research Foundation, priority 2011, dated 2015).
Converted amounts (≈) assume the structure as drawn.

Assays:
[1] = tested on: fluconazole resistant C. alibcans, Cryptococcus sp. and Aspergillus sp.; test: MIC summary for fungi; type: cell-based; settings: Candida albicans, read-out: minimum inhibitory concentration (MIC)
Protocol: (§1) Synthetic pure albicanol and drimenol were dissolved in DMSO (10 mg/ml as stock solution) and used to determine their antifungal activities (minimum inhibitory concentration, MIC) against various fungi according to the microdilution assay of Clinical and Laboratory Standards Institute (CLSI (2008). Reference method for broth dilution antifungal susceptibility testing of yeasts and filamentous fungi: Approved Standard-Third Edition. Clinical and Laboratory Standards Institute 940 West Valley Road, Wayne, Pa. CLSI document M27-A3 & M38-A28. An initial assay had confirmed the antifungal activity of albicanol and drimenol; therefore, the susceptibility assay was extended to other pathogenic fungi including fluconazole resistant C. albicans, various species of candida, Cryptococcus, Aspergillus and a dermatophyte fungus.
(§2) Yeast cells or conidia (for filamentous fungi) were suspended in RPMI 1640 (with 50 mM glucose) medium to a final concentration of 10^4 cfu/ml and distributed in a 96-well microplate to a total volume of 100 μl/well. […] The MIC was defined as the lowest compound concentration at which no growth occurred, as determined visually and by OD600 measurement (or microscopically, inverted). […] Cytotoxicity of albicanol and drimenol was determined using human intestinal epithelial cell lines (Int-407) by utilizing cell viability assay kit of Promega.

[2] = tested on: A. nidulans, C. albicans, C. albicans 95-158 Flu-R, Cryp. neomormans, Candida krusei, and C. glabrata; test: Fungicidal test, viability of treated fungal cells spotted on YPD agar; type: cell-based; settings: for effect of amines or YPD medium on bioactivity: presence of amines or YPD medium
[3] = tested on: C. albicans Day 185; test: CLSI microdilution antifungal susceptibility assay; type: cell-based; settings: for EC50 / MIC: Candida albicans; for EC50: DAY185, 50% fungal inhibitory concentration; for MIC: DAY185, lowest concentration with no fungal growth, CLSI
Protocol: as §1
(§3) Yeast cells or conidia (for filamentous fungi) were suspended in RPMI 1640 (with 50 mM glucose) medium to a final concentration of 10^4 cfu/ml and distributed in a 96-well microplate to a total volume of 100 μl/well. Albicanol and drimenol were added into the wells and serial dilutions (broad or narrow range) with replicates were made, and wells with or without DMSO served as controls. Plates were incubated without shaking at 37° C. for 24-48 h for yeasts and 30° C. for 4 days for filamentous fungi (Aspergillus and Trichophyton sp). The MIC was defined as the lowest compound concentration at which no growth occurred, as determined visually and by OD600 measurement (or microscopically, inverted). As a positive control, amphotericin B (AMB) (1 μg/ml) was also included in parallel. Cytotoxicity of albicanol and drimenol was determined using human intestinal epithelial cell lines (Int-407) by utilizing cell viability assay kit of Promega.

[4] = tested on: T. equinum; test: CLSI microdilution antifungal susceptibility assay; type: cell-based; settings: for EC50: 50% fungal inhibitory concentration; for MIC: lowest concentration with no fungal growth, CLSI
Protocol: as §1, §3

[5] = tested on: Cryp. neoformans; test: CLSI microdilution antifungal susceptibility assay; type: cell-based; settings: for EC50 / MIC: Cryptococcus neoformans; for EC50: 50% fungal inhibitory concentration; for MIC: lowest concentration with no fungal growth, CLSI
Protocol: as §1, §3

[6] = tested on: C. albicans SC5314; test: CLSI microdilution antifungal susceptibility assay; type: cell-based; settings: for EC50 / MIC: Candida albicans; for EC50: 50% fungal inhibitory concentration; for MIC: lowest concentration with no fungal growth, CLSI
Protocol: as §1, §3

[7] = tested on: Caenorhabditis elegans (worm); test: Toxicity to worms in the Candidiasis model; type: in vivo; settings: at concentrations that inhibit fungal growth
Protocol: (§4) In order to determine antifungal efficacy and toxicity of albicanol and drimenol simultaneously, Caenorhabditis elegans (worm), a non-mammalian host model of Candidiasis was used. Worms fed with C. albicans yeast cells were incubated in RPMI medium in the presence or absence of drimenol. After 4-5 days worms were scored for survival under an inverted microscope and images were recorded. […] Note dead worms (straight shapes) and clusters of fungal growth in wells without drimenol (−Dri).

[8] = tested on: various fungi; test: Fungal EC50 and selective index summary; type: cell-based; settings: against various fungi; read-out: effective fungal concentration-50 (EC50)
Protocol: as §3

[9] = Cytotoxicity, Promega's cell viability assay kit; type: cell-based; settings: human, Int-407 intestinal epithelial cells; summary in description; read-out: cytotoxic inhibitory concentration (IC50) against Int. 407
Protocol: as §3

[10] = tested on: dermatophyte fungi; test: MIC summary for dermatophyte fungi; type: cell-based
Protocol: as §1, §2

[11] = tested on: C. albicans; test: Caenorhabditis elegans host model of Candidiasis; type: in vivo; settings: 50 μg/ml; RPMI medium; scored after 4-5 days
Protocol: as §4

[12] = tested on: barcoded mutants of Saccharomyces cerevisiae; test: Genome-wide fitness (haploinsufficiency) profiling, yeast TAG4 microarray; type: cell-based; settings: at 20% growth inhibitory concentration; 20 generations

## C=C1CC[C@H]2C(C)(C)CCC[C@]2(C)[C@H]1CO [Albicanol, (+)-albicanol]
[1]
  MIC: 25 to 50 µg/mL (≈ 112 to 225 µM)
[2]
  effect of amines or YPD medium on bioactivity: not affected
[3]
  Selective Index (Int-407 IC50/fungal EC50): 2.27
  EC50: 22 µg/mL (≈ 98.9 µM)
  MIC: 40 µg/mL (≈ 180 µM)
[4]
  Selective Index (Int-407 IC50/fungal EC50): 6.25 (6.25)
  EC50: 8 µg/mL (≈ 36 µM)
  MIC: 15 µg/mL (≈ 67.5 µM)
[5]
  Selective Index (Int-407 IC50/fungal EC50): 2.27
  EC50: 22 µg/mL (≈ 98.9 µM)
  MIC: 40 µg/mL (≈ 180 µM)
[6]
  Selective Index (Int-407 IC50/fungal EC50): 2
  EC50: 25 µg/mL (≈ 112 µM)
  MIC: 50 µg/mL (≈ 225 µM)
[7]
  cytotoxicity to worms: less or no cytotoxicity to worms
[8]
  EC50: 5 to 30 µg/mL (≈ 22.5 to 135 µM)
[9]
  CC50: ~50 µg/mL (≈ 225 µM)
[10]
  MIC: 5 to 15 µg/mL (≈ 22.5 to 67.5 µM)

## CC1=CC[C@H]2C(C)(C)CCC[C@]2(C)[C@H]1CO [drimenol, (−)-drimenol]
[1]
  MIC: 25 to 50 µg/mL (≈ 112 to 225 µM)
[11]
  protection of worms from C. albicans mediated death: prevented C. albicans growth and protected worms from C. albicans mediated death
[2]; all the fungi tested, 100 μg/ml for 48 h, read-out: minimum fungicidal concentration, MFC
  MFC: 100 µg/mL (≈ 450 µM)
[2]
  effect of amines or YPD medium on bioactivity: not affected
[3]
  Selective Index (Int-407 IC50/fungal EC50): 4.16
  EC50: 12 µg/mL (≈ 54 µM)
  MIC: 25 µg/mL (≈ 112 µM)
[4]
  Selective Index (Int-407 IC50/fungal EC50): 6.25 (6.25)
  EC50: 8 µg/mL (≈ 36 µM)
  MIC: 5 µg/mL (≈ 22.5 µM)
[5]
  Selective Index (Int-407 IC50/fungal EC50): 3.12
  EC50: 16 µg/mL (≈ 72 µM)
  MIC: 30 µg/mL (≈ 135 µM)
[6]
  Selective Index (Int-407 IC50/fungal EC50): 2.27
  EC50: 22 µg/mL (≈ 98.9 µM)
  MIC: 40 µg/mL (≈ 180 µM)
[7]
  cytotoxicity to worms: less or no cytotoxicity to worms
[8]
  EC50: 5 to 30 µg/mL (≈ 22.5 to 135 µM)
[9]
  CC50: ~50 µg/mL (≈ 225 µM)
[10]
  MIC: 5 to 15 µg/mL (≈ 22.5 to 67.5 µM)
[12]
  strains/genes depleted at the log ratio of >1.5: 34
